IC50, AC50 and EC50 data for 27 compounds are collected here from ChEMBL document CHEMBL1201862, “PubChem BioAssay data set” (2004).

Calls of active or inactive are those of the source. Bounds are passed on as bounds.

The target of test [1] is T1, Carboxy-terminal domain RNA polymerase II polypeptide A small phosphatase 1 (Homo sapiens, UniProt Q9GZU7).
T1 sequence (Q9GZU7 whole entry): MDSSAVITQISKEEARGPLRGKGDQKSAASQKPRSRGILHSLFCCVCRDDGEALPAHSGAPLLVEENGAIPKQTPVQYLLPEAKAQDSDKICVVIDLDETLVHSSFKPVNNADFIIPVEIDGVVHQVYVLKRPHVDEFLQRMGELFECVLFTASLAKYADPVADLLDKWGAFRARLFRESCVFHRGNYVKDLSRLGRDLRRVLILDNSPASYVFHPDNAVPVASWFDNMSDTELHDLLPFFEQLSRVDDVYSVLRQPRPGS
Nature of the test: inhibitors of CTDSP1, concentration-response testing, biochemical assay, absorbance-based, actives from ultra-high-throughput screening (AID 540297). Format: functional.

Test [2] can be described thus: intracellular Trypanosoma cruzi inhibitors in host cells – cell-based, plate reader, cherry-pick samples, set 3, dose response (AID 651818).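 Also: compounds incubated with infected cells for about four days.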 Format: functional.
Test [3] is described as follows: growth suppression of PTEN-null colon cells, dose response, cell-based, HCT116 PTEN knockout (AID 1047).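 Also: HCT116 colon tumor cells with PTEN knocked out; cells exposed to compound for 60 hours before readout; potency for loss of cell viability measured by luminescence.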 In kind it is functional.
The nature of test [4]: growth suppression of beta-catenin-knockout colon cells, dose response, cell-based, HCT116, human colon tumor (AID 1045).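 Also: HCT116 colon tumor cells with beta catenin knocked out; cells exposed to compound for 60 hours.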 In kind it is functional.
For test [5], the target named is T2, RNA-binding protein pos-1 (Caenorhabditis elegans, UniProt G5EF15).
T2 sequence (G5EF15 whole entry): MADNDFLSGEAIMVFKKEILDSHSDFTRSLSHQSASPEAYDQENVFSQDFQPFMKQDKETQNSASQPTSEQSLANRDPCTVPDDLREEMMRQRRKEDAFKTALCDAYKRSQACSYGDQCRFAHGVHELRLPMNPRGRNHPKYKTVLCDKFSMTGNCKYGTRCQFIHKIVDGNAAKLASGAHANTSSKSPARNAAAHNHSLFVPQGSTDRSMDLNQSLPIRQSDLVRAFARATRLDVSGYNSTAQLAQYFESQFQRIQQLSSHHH
Nature of the test: inhibitors of POS-1/mex-3 RNA binding, dose response, biochemical, fluorescence polarization (AID 1964).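 Also: purified POS-1 fused to maltose binding protein made in E. coli; potency of compounds blocking POS-1 binding to fluorescent RNA.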 For orientation: In fluorescence polarisation assays a small probe gives low polarisation when free and higher when bound to something large.

Test [6] addresses T3, Zinc finger protein mex-5 (Caenorhabditis elegans, UniProt Q9XUB2).
T3 sequence (Q9XUB2 whole entry): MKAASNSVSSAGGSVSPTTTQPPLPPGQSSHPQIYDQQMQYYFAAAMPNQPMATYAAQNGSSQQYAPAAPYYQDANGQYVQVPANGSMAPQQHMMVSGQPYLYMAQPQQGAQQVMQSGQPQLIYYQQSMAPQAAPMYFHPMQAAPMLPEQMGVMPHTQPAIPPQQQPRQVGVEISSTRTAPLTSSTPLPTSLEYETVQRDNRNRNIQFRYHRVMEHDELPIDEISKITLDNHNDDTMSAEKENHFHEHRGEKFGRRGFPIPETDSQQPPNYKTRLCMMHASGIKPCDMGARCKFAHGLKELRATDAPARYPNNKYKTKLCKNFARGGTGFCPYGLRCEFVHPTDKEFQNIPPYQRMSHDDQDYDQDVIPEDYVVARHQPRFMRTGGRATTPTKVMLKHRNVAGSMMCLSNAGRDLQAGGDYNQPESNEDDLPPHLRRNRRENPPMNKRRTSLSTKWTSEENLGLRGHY
Nature of the test: MEX-5/TCR-2 RNA interaction inhibitors, dose response, biochemical, C. elegans, fluorescence polarization (AID 1960).

The target in a further test is Large T antigen (Simian virus 40, UniProt P03070). Format: functional, Betapolyomavirus macacae.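 Also: Confirmatory-stage PubChem screen for compounds that inhibit SV40 T antigen.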
Test [7] concerns the target T4, Polyadenylate-binding protein 1 (Homo sapiens, UniProt P11940). Kind of test: PABP1 MLLE–PAM2 interaction inhibitors, dose response, miRNA deadenylation inhibitor project, biochemical, fluorescence polarization, Cy5-PAM2 peptide, secondary (AID 602260). In kind it is functional. The settings on record: read-out: IC50_Mean.
Test [8] has as its target T4, Polyadenylate-binding protein 1. Nature of the test: PABP1 MLLE–PAM2 binding inhibitor potency, dose response, biochemical, fluorescence polarization, FITC-PAM2 peptide (AID 602259). In kind it is functional. The following applies: read-out: IC50_Mean.
Test [9] has as its target Luciferin 4-monooxygenase (Photinus pyralis, UniProt P08659). Nature of the test: firefly luciferase enzyme inhibitors, dose response, biochemical, luminescence (AID 1891).
Test [10] can be described thus: Luminescence Cell-Based Dose Confirmation HTS to Identify Inhibitors of Platelet Dense Granule Release. [Related pubchem assays: 1663 (Primary HTS), 1678 (Summary of Project)]. Format: functional.
The nature of test [11]: NIH-3T3 fibroblast cytotoxicity, dose response, cytotoxicity control, cell-based, fluorescence, Alamar Blue, secondary assay (AID 2327).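 Also: NIH-3T3 mouse fibroblasts cultured with fluconazole at 8 µg/mL.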 Format: functional.
The nature of test [12]: C. albicans growth with fluconazole, confirmation, fluorescence, retest (AID 2467). Format: functional, cell-based.
Another test has as its target Paired box protein Pax-8 (Homo sapiens, UniProt Q06710). Kind of test: inhibitors of PAX8-driven TPO luciferase reporter, dose response, RMG-I cells, cherry-pick (AID 687027).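 Also: luciferase reporter driven by Pax8 target thyroperoxidase promoter measured by SteadyGlo luminescence.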 Format: functional, cell-based. (A reporter such as luciferase makes a cellular process visible.)

T4 sequence (P11940 whole entry): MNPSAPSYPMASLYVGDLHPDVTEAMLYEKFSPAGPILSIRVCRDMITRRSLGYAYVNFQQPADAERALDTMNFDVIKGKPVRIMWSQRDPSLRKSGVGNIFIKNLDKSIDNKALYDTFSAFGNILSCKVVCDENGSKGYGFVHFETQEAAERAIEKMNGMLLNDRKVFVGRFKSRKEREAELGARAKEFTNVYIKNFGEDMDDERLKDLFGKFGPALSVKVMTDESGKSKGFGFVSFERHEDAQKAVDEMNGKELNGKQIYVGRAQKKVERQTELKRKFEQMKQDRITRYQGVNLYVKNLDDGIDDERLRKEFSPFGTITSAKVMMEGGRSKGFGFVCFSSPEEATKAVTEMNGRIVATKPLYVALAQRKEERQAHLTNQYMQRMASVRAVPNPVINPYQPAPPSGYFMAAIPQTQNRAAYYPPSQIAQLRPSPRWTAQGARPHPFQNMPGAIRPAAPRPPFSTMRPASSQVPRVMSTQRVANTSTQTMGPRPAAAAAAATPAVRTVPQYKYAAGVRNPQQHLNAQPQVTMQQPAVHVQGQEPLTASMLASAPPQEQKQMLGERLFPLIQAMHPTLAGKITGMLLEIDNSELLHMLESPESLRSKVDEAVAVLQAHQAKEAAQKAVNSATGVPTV
Chain of Large T antigen (P03070 whole entry): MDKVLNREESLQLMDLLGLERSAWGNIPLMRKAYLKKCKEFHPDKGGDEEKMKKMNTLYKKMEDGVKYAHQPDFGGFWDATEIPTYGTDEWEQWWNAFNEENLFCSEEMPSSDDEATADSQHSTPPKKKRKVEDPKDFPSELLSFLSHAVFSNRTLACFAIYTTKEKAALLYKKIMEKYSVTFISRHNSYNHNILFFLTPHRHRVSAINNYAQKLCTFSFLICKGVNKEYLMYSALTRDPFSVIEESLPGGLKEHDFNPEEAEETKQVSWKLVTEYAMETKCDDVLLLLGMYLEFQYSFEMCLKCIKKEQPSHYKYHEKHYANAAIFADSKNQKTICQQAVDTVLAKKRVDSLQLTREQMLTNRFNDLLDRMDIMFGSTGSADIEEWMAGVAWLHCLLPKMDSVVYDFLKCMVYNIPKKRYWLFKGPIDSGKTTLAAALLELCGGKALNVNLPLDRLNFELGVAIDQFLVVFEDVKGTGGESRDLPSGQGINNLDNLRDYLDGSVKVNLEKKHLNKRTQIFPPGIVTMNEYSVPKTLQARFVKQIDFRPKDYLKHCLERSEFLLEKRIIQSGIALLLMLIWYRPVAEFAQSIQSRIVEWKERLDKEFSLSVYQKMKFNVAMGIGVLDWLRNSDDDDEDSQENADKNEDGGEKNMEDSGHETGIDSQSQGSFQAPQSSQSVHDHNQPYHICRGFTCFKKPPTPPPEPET
Chain of Paired box protein Pax-8 (Q06710 whole entry): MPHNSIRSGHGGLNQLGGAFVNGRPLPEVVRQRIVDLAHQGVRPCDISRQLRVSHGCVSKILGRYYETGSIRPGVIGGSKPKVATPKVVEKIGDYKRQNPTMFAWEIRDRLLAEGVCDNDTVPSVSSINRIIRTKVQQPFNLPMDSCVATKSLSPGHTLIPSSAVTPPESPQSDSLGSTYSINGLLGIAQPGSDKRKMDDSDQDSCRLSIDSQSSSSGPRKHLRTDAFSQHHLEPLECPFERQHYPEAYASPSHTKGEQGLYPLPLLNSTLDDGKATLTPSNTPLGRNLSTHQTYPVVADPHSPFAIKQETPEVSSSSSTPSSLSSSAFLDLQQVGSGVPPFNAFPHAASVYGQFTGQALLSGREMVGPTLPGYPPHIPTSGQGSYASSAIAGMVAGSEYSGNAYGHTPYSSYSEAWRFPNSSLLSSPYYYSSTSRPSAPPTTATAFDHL
Chain of Luciferin 4-monooxygenase (P08659 whole entry): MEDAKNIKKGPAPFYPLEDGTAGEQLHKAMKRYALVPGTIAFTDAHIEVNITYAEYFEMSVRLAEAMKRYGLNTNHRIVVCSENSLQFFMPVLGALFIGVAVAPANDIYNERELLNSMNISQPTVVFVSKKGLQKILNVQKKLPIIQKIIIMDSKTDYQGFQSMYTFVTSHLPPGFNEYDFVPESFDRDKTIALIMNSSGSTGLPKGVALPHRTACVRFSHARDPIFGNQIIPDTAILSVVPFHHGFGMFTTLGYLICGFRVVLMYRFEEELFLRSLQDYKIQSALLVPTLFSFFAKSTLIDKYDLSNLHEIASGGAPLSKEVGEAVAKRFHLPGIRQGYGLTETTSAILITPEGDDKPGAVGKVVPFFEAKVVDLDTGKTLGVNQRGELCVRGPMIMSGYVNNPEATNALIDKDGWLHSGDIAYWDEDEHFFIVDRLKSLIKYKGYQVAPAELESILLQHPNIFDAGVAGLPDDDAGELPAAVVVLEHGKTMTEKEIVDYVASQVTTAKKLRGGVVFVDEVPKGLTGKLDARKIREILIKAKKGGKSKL

In the case of `O=C(Cc1nnc(NC(=O)c2ccccc2)s1)N/N=C/c1ccc(O)cc1`, in test [1], the IC50 was 8.5 µM (active).
On to `Cc1ccc(S(=O)(=O)N(C)C[C@H]2Oc3ccc(NC(=O)Nc4cccc5ccccc45)cc3CC(=O)N([C@@H](C)CO)C[C@H]2C)cc1`, for which the AC50 in test [2] was 4.81 µM (active).
Regarding `Cc1cccc(C(=O)OCC(=O)c2ccc(CC(=O)N3CCOCC3)s2)c1C`, the IC50 in test [1] was 6.46 µM (active).
Take `COc1ccc(S(=O)(=O)Nc2ccc3c(c2)C(=O)N([C@H](C)CO)C[C@H](C)[C@H](CN(C)Cc2ccc(C(F)(F)F)cc2)OCCCC[C@@H](C)O3)cc1`: the AC50 in test [2] was 3.2 µM (active).
On the same count and under the same terms, the same measure for `C[C@H]1CN([C@@H](C)CO)C(=O)c2cccc(NC(=O)CCCCCC(=O)Nc3ccccc3N)c2O[C@@H]1CN(C)CC1CCCCC1`: 1.95 µM (active).
In the case of `COc1cccc(C(=O)Oc2ccccc2/C=C\C(=O)c2cc3ccccc3o2)c1`, the EC50 in [3] was 7.8 µM (active); in [4], 6.66 µM (active).
For `Oc1[nH]c(S)nc2nc(S)nc1-2`, the EC50 in test [5] is 32 µM (active); in test [6], 8.3 µM (active). At Large T antigen, the IC50 is 27.2 µM (active).
Regarding `C[C@@H]1CCCCO[C@H](CN(C)Cc2ccc(C(F)(F)F)cc2)[C@@H](C)CN([C@H](C)CO)C(=O)c2cc(NC(=O)Nc3ccc(C(F)(F)F)cc3)ccc2O1`, the AC50 in test [2] is 3.15 µM (active).
Take `Cc1cc2cc(CNC(=O)c3cccs3)ccc2n1C`: the IC50 in test [7] and in test [8] was > 66 µM (inactive) throughout.
For `Cc1ccc(NC(=O)CC2SC(=O)N(c3ccccc3)C2=O)cc1` (stereo unspecified), the EC50 in test [9] was > 112 µM (not active); in test [10], 109 µM (active). The IC50 in test [7] and in test [8] was > 66 µM (inactive) throughout.
For `O=C(COC(=O)/C=C/c1ccco1)Nc1ncc(Cl)cc1Cl`, in test [1], the IC50 is 17 µM (active).
For `C[C@H](CO)N1C[C@H](C)[C@@H](CN(C)Cc2ccc(Oc3ccccc3)cc2)Oc2ccc(N(C)C)cc2C1=O`, the concentration at half-maximal activity (AC50) in [2] was 2.27 µM (active).
With `O=[N+]([O-])c1ccc(-c2nc(=S)c3c(o2)CCCC3)cc1`, the IC50 in test [7] and in test [8] was > 66 µM (inactive) in each case.
As to `COc1ccc(N2C(=O)/C(=C/c3ccc(C)o3)C(=O)NC2=S)c(OC)c1`, the EC50 was > 300 µM (not active) in [5] and 41.3 µM (active) in [6]. Further, the IC50 at Large T antigen was 34.3 µM (active).
As to `C[C@@H]1CN([C@@H](C)CO)C(=O)c2cccc(NC(=O)c3ccncc3)c2O[C@@H]1CN(C)Cc1ccc(Cl)c(Cl)c1`, in [2], the AC50 is 1.31 µM (active).
In the case of `C=CCNC(=O)COC(=O)c1c2c(nc3ccccc13)CCC2`, the IC50 in test [1] is 7.39 µM (active).
As to `C[C@@H]1CN([C@H](C)CO)C(=O)Cc2cc(NC(=O)NC3CCCCC3)ccc2O[C@H]1CN(C)Cc1ccc(C(=O)Nc2ccccc2N)cc1`, in [2], the AC50 is 5.26 µM (active).
For `CC(=O)Oc1cc2c(C(=O)NCCCN3CCOCC3)c(C)oc2c2ccccc12`, the EC50 was 3.79 µM (active) in test [3] and 4.45 µM (active) in test [4].
`Oc1[nH]c2c(Cl)cc(Cl)cc2c1N=NC(S)=NCC1CCCO1` (stereo unspecified): the EC50 in [11] is 19.8 µM (inconclusive); in test [12], 3.03 µM (active); in test [3], 1.67 µM (active); in [4], 1.22 µM (active).
Regarding `CC(=O)C(Sc1nccc(-c2cccs2)n1)C(C)=O`, the IC50 in [7] and in test [8] was > 66 µM (inactive) in each case.
For the compound `O=C(CSc1oc(-c2ccc(F)cc2)nc1S(=O)(=O)c1ccc(F)cc1)NCC1CCCO1` (stereo unspecified), the EC50 was 10.2 µM (active) in [3] and 13.6 µM (active) in [4].
As for `C[C@@H]1CN([C@@H](C)CO)C(=O)c2cccc(NC(=O)Nc3ccc(C(F)(F)F)cc3)c2O[C@@H]1CN(C)S(=O)(=O)c1ccc(Cl)cc1`, the AC50 in test [2] is 2.79 µM (active).
Take `COc1ccc(NC(=O)Nc2ccc3c(c2)CC(=O)N([C@H](C)CO)C[C@@H](C)[C@@H](CN(C)Cc2ccc(Oc4ccccc4)cc2)O3)cc1`: the AC50 in [2] was 2.09 µM (active); on Paired box protein Pax-8, 23.5 µM (active).
Turning to `CCOc1nc(-c2ccc(OC)cc2)ccc1-c1noc(-c2cc(OC)c(OC)c(OC)c2)n1`, the EC50 in test [3] was 21.1 µM (active); in test [4], 25.5 µM (active).
As to `C[n+]1cnc(-c2ccccc2)cc1-c1ccccc1`, in test [1], the IC50 is 3.35 µM (active).
Turning to `Cc1ccc(SC2CC(=O)N(c3ccc4c(c3)OCCO4)C2=O)cc1` (stereo unspecified), the IC50 in test [7] and in [8] was > 66 µM (inactive) each time.
`C[C@H](CO)N1C[C@H](C)[C@H](CN(C)Cc2ccc(C(=O)Nc3ccccc3N)cc2)Oc2ccc(NS(=O)(=O)c3ccc(F)cc3)cc2CC1=O`: the AC50 in [2] was 2.64 µM (active).

In general, AC50 refers to the midpoint of the concentration-response curve, whichever way the signal moves. The term EC50 denotes the concentration giving half of the maximal effect.
